Key:
[1] = Angle of repose (AoR/AOR) of powder; type: physicochemical
Description: Both of these ibuprofen powders could not be fluidized sufficiently prior to coating, yet both of the coated ibuprofen particles were well fluidized after dry coating.
The operating conditions for coating step 2 may be established by a skilled person giving consideration, for example, to particle agglomeration and providing reduced angle of repose (AOR) values for the coated API powder. The degree of particle agglomeration may be determined by measuring the size of the coated particles in SEM images. The degree of agglomeration may also be estimated using the dispersion pressure titration in the Rodos/Helos system (Rodos and Helos, Sympatec, Lawrenceville, N.J., USA). A discussion of the pressure titration may be found in Han, X., Ghoroi, C., To, D., Chen, Y., Davë, R., “Simultaneous micronization and surface modification for improvement of flow and dissolution of drug particles (2011).” International Journal of Pharmaceutics, vol. 415, pp. 185-195, which is incorporated in its entirety by reference. The AOR may be measured using the procedure of ASTM D6393-99, “Bulk Solids Characterization by CARR Indices.” For example, when the Comil is used, the impeller speed may be optimized to reduce the agglomeration (FIG. 3) as higher impeller speed […] agglomerate size for the silica coated API powders.
M5P hydrophilic silica has a particle size of 20 nm and is manufactured by Cabot

[2] = Flow function coefficient (FFC), shear cell of FT 4 tester; type: physicochemical
[3] = finer ibuprofen powder, median size about 41 micron

CC(C)Cc1ccc(C(C)C(=O)O)cc1 (centres unmarked) [ibuprofen]
AoR [1, 3]: about 58 degrees
AOR ([1]; flow properties of ibuprofen before and after dry coating with silica): 55 °
AoR ([1]; ibuprofen median particle size about 74 micron, Hosokawa Powder Tester, ASTM D6393-08): about 55 degrees
FFC [2, 3]: about 2.8
FFC ([2]; ibuprofen median particle size about 74 micron, pre-consolidation of 3 kPa): about 5

Reference: US8993041B2, “Taste masked active pharmaceutical powder compositions and processes for making them” (New Jersey Institute of Technology, priority 2012, dated 2015)
